As a reminder, the EC50 is the concentration giving half of the maximal effect. As a reminder, the logD is the decadic logarithm of the distribution of all forms, ionised or not, between an organic phase and buffer at a given pH. Lower therefore signals a more hydrophilic compound.

Data set [1] addresses T1, Tumor necrosis factor receptor superfamily member 16 (Mus musculus) (UniProt Q9Z0W1).
T1 sequence (whole entry): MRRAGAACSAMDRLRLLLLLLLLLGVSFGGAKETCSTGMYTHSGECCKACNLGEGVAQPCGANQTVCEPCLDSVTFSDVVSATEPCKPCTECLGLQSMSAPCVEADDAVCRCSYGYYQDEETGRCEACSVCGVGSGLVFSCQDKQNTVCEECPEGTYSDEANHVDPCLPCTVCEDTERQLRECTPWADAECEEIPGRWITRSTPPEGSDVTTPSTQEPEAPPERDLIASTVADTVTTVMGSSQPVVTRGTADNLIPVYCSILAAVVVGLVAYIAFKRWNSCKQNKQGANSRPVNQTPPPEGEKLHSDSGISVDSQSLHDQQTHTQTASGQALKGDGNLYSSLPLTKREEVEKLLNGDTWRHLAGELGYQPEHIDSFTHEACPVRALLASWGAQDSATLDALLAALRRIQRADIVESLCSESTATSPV
The experiment in a line: (§1) Activation of p75NTR in C57BL/6 mouse brain assessed as suppression of carbachol-mediated persistant firing of entorhinal cortex after 15 mins by current-clamp technique. It counts as tissue-based.

Data set [2] has as its target T2, Tumor necrosis factor receptor superfamily member 16 (Mus musculus, UniProt Q9Z0W1).
T2 sequence (Q9Z0W1 whole entry): T1 sequence (whole entry)
Described as §1. It counts as tissue-based.

The nature of data set [3]: Hydrophilicity, logD of the compound. Conditions: octanol/water. It counts as physicochemical.
The species named for a further data set is Mus musculus. Nature of the data set: Effect on carbachol-mediated persistant firing of entorhinal cortex in p75NTR deficient C57BL/6 mouse brain at 10 nM after 15 mins by current-clamp technique. It counts as functional.
For data set [4], the target named is T3, Tumor necrosis factor receptor superfamily member 16 (Rattus norvegicus) (UniProt P07174).
T3 sequence (whole entry): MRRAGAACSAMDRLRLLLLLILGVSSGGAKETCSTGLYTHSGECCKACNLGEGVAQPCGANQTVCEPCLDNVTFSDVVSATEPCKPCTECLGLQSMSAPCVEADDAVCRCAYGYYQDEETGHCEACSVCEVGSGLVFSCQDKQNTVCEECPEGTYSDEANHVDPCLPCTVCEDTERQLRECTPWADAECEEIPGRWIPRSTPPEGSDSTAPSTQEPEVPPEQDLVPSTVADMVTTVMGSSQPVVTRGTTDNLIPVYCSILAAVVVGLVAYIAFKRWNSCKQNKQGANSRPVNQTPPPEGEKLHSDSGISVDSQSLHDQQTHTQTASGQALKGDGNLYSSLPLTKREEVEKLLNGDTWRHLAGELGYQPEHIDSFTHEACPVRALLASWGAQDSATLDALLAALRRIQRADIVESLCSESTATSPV
The experiment in a line: Binding affinity to p75NTR in Long-Evans rat brain at 300 uCi incubated for 40 mins followed by compound wash out for 10 secs and addition of compound for 2 hrs by autoradiographic analysis. It counts as tissue-based. The note with it: tested as the 11C-labelled form.

Data set [5] in a line: Drug uptake in C57BL/6 mouse brain incubated for 40 mins followed by compound wash out for 10 secs and addition of compound for 30 to 60 mins by autoradiographic analysis. It counts as ADME, tissue-based.
Data set [6] is described as follows: Drug uptake in C57BL/6 mouse brain incubated for 40 mins followed by compound wash out for 10 secs and addition of compound for 30 to 60 mins in presence of 10 uM LM11A-24 by autoradiographic analysis. It counts as ADME, tissue-based.
The nature of data set [7]: Drug uptake in C57BL/6 mouse brain incubated for 40 mins followed by compound wash out for 10 secs and addition of compound for 30 to 60 mins in presence of 400 uM LM11A-24 by autoradiographic analysis. It counts as ADME, tissue-based.
The nature of data set [8]: Drug uptake in C57BL/6 mouse DRG neurons incubated for 40 mins measured after 30 to 60 mins by autoradiographic analysis. Conditions: drg neuron. It counts as ADME, cell-based.
Data set [9] can be described thus: Drug uptake in C57BL/6 mouse DRG neurons incubated for 40 mins followed by compound wash out for 10 secs and addition of compound for 30 to 60 mins by autoradiographic analysis. It counts as ADME, cell-based. Conditions: drg neuron.
Data set [10] can be described thus: Drug uptake in Long-Evans rat brain at 0.4 mCi, iv through bolus administration by PET analysis. It counts as ADME, organism-based. Conditions: in vivo.
Data set [11] in a line: Drug uptake in Long-Evans rat bladder at 0.4 mCi, iv through bolus administration by PET analysis. The note with it: in vivo. It counts as ADME, organism-based, Urinary bladder.

Activity calls are given as the source filed them. The calls are words filed in the database; no cut-off is given here. Some results are limits rather than exact numbers.

Take `CN(C)CCCNC(=O)Cn1cnc2c1c(=O)n(C)c(=O)n2C`: in [1], the Activity result is “Dose-dependent effect”. Further, the EC50 in data set [2] is less than 10 nM. For the same compound, in [3], the logD is -3. In addition, the outcome (in the data set listed under Mus musculus; in data set [4]) was inactive.
Take `CN([11CH3])CCCNC(=O)Cn1cnc2c1c(=O)n(C)c(=O)n2C`: the Drug uptake entry in data set [5] is listed as “Active”; in data set [6], “Active”; in [7] it was “Active”; in data set [8] it was “Not Active”; in data set [9], “Not Active”; in [10] it was “Not Active”. In [11], the Drug uptake result is recorded as “Active”.
